Experimental data from PMC6473174, “Ranking Hits From Saturation Transfer Difference Nuclear Magnetic Resonance–Based Fragment Screening” (Frontiers in Chemistry, 2019).

Legend:
murine langerin [1] = target: T1, murine langerin (Mus musculus, UniProt Q8VBX4); assay: STD NMR measurements (fragment screening and epitope mapping), STD amplification factor; format: binding
T1 sequence (Q8VBX4 1-331): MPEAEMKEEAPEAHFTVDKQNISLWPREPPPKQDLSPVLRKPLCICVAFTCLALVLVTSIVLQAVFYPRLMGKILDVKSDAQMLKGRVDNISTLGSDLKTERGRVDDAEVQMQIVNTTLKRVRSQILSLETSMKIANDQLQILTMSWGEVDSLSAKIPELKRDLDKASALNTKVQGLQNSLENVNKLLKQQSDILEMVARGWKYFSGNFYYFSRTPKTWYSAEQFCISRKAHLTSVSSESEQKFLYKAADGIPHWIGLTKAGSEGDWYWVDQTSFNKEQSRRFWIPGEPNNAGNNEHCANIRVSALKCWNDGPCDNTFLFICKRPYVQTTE
Protocol: STD NMR experiments were performed as described elsewhere (Aretz et al., [2018]). Briefly, 10 μM murine langerin was screened against a library of 660 fragments at a ligand concentration [L] = 0.2 mM using a saturation time of tsat = 4 s. Hits were counter-screened by SPR (see the section Estimation of Affinity Using Surface Plasmon Resonance), enabling affinity estimation and hit validation. For SPR-validated hits, the STD amplification factor was determined as reported earlier (Mayer and Meyer, [2001]) and plotted against affinity (Figure 1A). For epitope mapping of thiazolopyrimidine derivatives (Figure 2E), protein concentration was [P] = 20 μM, ligand concentration was [L] = 0.5–1 mM, and tsat = 1 s. Affinity of all derivatives was estimated by SPR (see the section Estimation of Affinity Using Surface Plasmon Resonance), and the STD amplification factor was determined as reported earlier for the proton in the 7-position of the thiazolopyrimidine scaffold (Mayer and Meyer, [2001]). Spectra were analyzed in MestReNova 10.0.0.

murine langerin [2] = target: T1, murine langerin; set-up: method as in Aretz et al. (2018); conditions: estimated by SPR; murine langerin on CM7 chip; 25 mM HEPES pH 7.6, 150 mM NaCl, 5 mM CaCl2, 0.005% Tween-20; ref Aretz et al. (2018); read-out: Affinity; cited from earlier work
[3] = target: Beta-lactamase (ampC; P00811); conditions: read-out: Affinity; AmpC fragment complexes, Figure 2; ref Barelier et al., 2014; cited from earlier work
[4] = target: Heat shock protein HSP 90-alpha (HSP90AA1; P07900); set-up: method as in Roughley and Hubbard, 2011; conditions: HSP90 fragment complexes, Figure 2; ref Roughley and Hubbard, 2011; read-out: Affinity; cited from earlier work
[5] = target: Glycogen synthase kinase-3 beta (GSK3B; P49841); conditions: GSK3b complex PDB 4J71, Figure S4; read-out: Affinity; cited from earlier work
[6] = target: cAMP and cAMP-inhibited cGMP 3',5'-cyclic phosphodiesterase 10A (PDE10A; Q9Y233); set-up: method as in Recht et al., 2014; conditions: PDE10A fragment complexes, Figure 2; ref Recht et al., 2014; read-out: Affinity; cited from earlier work
[7] = Figure 1a fragment screening, [P] = 10 μM, [L] = 0.2 mM, tsat = 4 s

STD amplification factor (murine langerin [1]; [7])	SMILES	Kd (murine langerin [2]) [mM]	other results
24	O=C(Nc1ccccc1O)c1cccnc1Cl [S60]	2.4 ± 0.1	–
–	CCN1C(=O)CC(=O)N(CC)C1=S [CHEMBL2136061]	–	Kd [3]: 1.6 mM
–	COC(=O)Cc1cc(O)cc(O)c1 [CHEMBL540934]	–	Kd [4]: 0.49 mM
33	N#Cc1c(N)sc2c1CCCC2 [S13]	1.5 ± 0.3	–
5	COc1ccccc1/C=C1/C(=O)N=C(N)N1C [S31]	4 ± 2	–
55	O=C(O)Cc1cccc2occc12 [S6]	4.3 ± 0.5	–
3	CN(C)C(=O)c1csc(-c2ccccc2)n1 [S52]	2.7 ± 0.4	–
16	O=C1NC(=O)C(Cc2ccncc2)S1 (stereo not shown) [S61]	3.8 ± 0.3	–
7	CNC(=O)Nc1nnc(C(C)(C)C)s1 [S44]	2.9 ± 0.4	–
13	CCC(C)(C(=O)O)c1cccs1 (stereo not shown) [S21]	3.3 ± 0.2	–
23	Nc1cccc2c1CN(C1CCCCC1)C2=O [S11]	0.7 ± 0.2	–
19	OCc1cc(-c2ccccc2)on1 [S58]	2.3 ± 0.1	–
–	O=C(O)c1sccc1S(=O)(=O)NC1CC1 [4KZA]	–	Kd [3]: 0.2 mM
21	NC(=O)c1ccc(Cl)s1 [S18]	3.5 ± 0.2	–
36	O=C(O)/C=C/c1ccc2c(c1)OCCO2 [S14]	2.2 ± 0.2	–
79	COc1cc(C(=O)O)c(Br)cc1C [S42]	5.4 ± 0.9	–
–	C[C@@H]1Nc2cccnc2NC1=O [CHEMBL3941552]	–	Kd [5]: > 3 mM
4	Cc1cc(C)c(S(=O)(=O)C(C)C)c(Cl)n1 [S38]	4.7 ± 0.7	–
–	C[C@@H](C(=O)O)N(c1ccccc1)S(C)(=O)=O [4KZB]	–	Kd [3]: 1.3 mM
86	Cc1ccsc1/C=C/C(=O)O [S8]	3.4 ± 0.4	–

STD amplification factor (murine langerin [1]; [7])	SMILES	Kd (murine langerin [2]) [mM]	other results
19	Cc1nnc(-c2ccccc2)nc1O [S3]	4.7 ± 0.6	–
16	O=c1c(-c2ccn[nH]2)cnc2sccn12 [compound 1]	0.8 ± 0.1	STD amplification factor (murine langerin [1]; Figure 2e thiazolopyrimidine SAR, proton in 7-position, [P] = 20 μM, [L] = 0.5–1 mM, tsat = 1 s): 1.8
37	Cn1cc(CC(=O)O)c2ccccc21 [S53]	3 ± 0.1	–
–	NC(=O)c1ccccc1N [CHEMBL43175]	–	Kd [4]: > 0.4 mM
41	CN(C)S(=O)(=O)c1cccc(C(=O)O)c1 [S15]	11.3 ± 3	–
–	CC1CCCC(C(=O)O)N1C(=O)CCS (stereo not shown) [CHEMBL331575]	–	Kd [3]: 0.8 mM
3	COc1ccc(NS(C)(=O)=O)cc1 [S56]	16.8 ± 3.6	–
43	COC(=O)c1cc2c(s1)CCC2 [S65]	4.5 ± 0.7	–
44	Nc1ccc2sc(C(=O)O)cc2c1 [S66]	11.6 ± 0.1	–
49	COC(=O)c1cc(C)c(N)c(Br)c1 [S39]	28 ± 9	–
8	c1ccc(-c2nnc3n2CCCC3)cc1 [S30]	10 ± 3	–
13	CCNCc1cc(O)ccc1Br [S59]	2 ± 0.3	–
–	CCC(=O)c1ccc(O)cc1O [CHEMBL539379]	–	Kd [4]: 0.57 mM
4	COc1cc(C(C)=O)ccc1N [S63]	9 ± 1	–
–	Cc1nc2ccccc2c(=O)[nH]1 [CHEMBL395092]	–	Kd [6]: 0.99 mM
2	CCN1C(=O)c2ccccc2NC12CCCC2 [S37]	13 ± 2	–
2	CC(=O)Nc1ccc2nc(C)oc2c1 [S57]	5.7 ± 0.4	–
10	O=C(O)c1cccn(Cc2ccccc2)c1=O [S55]	24.7 ± 10.3	–
10	COc1ccc2c(c1)C(CC(=O)O)CC2=O (stereo not shown) [S12]	1.1 ± 0.2	–
44	CC(=O)c1ccn(S(=O)(=O)c2ccccc2)c1 [S36]	19 ± 1	–

SMILES	STD amplification factor (murine langerin [1]; [7])	Kd (murine langerin [2]) [mM]	other results
O=C1NC(=O)[C@@H]2CN(Cc3ccccc3)C[C@H]12 [S23]	4	4.9 ± 0.2	–
CN(C)C(=O)Oc1cccc(C(=O)O)c1 [S22]	24	~4	–
